Test results published in PMC3228891 (Journal of medicinal chemistry, 2011).

Legend:
[1] = target: hH1R (Homo sapiens, UniProt P35367); test: Inositol phosphate; assay type: cell-based; settings: for functional character in histamine stimulated InsP accumulation assays: HEK293T cells transiently transfected with hH1R
[2] = target: Human H3R (Homo sapiens, UniProt Q9Y5N1); test: Radioligand displacement assay, [3H]-N-α-methylhistamine binding
[3] = target: H1 receptor; settings: read-out: Ki H1 receptor (ChEMBLdb); known activity in ChEMBLdb ref 28; cited from earlier work
[4] = target: human H1R (Homo sapiens, UniProt P35367); test: Radioligand displacement assay, [3H]-mepyramine binding; settings: displacement of [3H]-mepyramine, membranes of HEK293T cells transiently expressing human H1R; mean ± SEM, at least three independent measurements
Sequence of human H1R (P35367 whole entry): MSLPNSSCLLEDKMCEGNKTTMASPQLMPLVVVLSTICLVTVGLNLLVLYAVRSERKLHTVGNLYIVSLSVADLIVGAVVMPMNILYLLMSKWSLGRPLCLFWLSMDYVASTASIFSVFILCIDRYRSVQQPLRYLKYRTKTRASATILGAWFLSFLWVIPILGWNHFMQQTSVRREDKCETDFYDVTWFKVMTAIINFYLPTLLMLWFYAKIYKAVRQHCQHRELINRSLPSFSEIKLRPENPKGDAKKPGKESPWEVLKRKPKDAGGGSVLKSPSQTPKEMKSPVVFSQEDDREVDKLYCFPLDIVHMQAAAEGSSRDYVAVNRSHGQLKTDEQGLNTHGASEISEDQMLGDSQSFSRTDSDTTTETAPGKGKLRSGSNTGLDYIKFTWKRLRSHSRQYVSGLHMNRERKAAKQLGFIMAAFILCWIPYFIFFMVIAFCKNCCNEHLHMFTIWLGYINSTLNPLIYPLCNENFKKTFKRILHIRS

Sequence of hH1R (P35367 whole entry): as above
Sequence of Human H3R (Q9Y5N1 whole entry): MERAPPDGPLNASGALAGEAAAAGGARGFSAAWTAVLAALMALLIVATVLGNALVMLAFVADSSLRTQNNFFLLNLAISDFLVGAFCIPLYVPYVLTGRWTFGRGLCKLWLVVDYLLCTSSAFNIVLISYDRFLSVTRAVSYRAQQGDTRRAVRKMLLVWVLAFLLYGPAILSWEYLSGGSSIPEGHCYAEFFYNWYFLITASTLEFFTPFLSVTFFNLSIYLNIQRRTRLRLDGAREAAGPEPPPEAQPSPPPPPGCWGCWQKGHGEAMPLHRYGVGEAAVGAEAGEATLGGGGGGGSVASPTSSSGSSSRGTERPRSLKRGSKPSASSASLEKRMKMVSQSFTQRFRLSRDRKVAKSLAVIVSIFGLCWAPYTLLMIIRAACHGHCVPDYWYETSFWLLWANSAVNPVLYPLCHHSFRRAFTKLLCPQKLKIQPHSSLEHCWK

Row | Structure (SMILES) | functional character in histamine stimulated InsP accumulation assays [1] | Ki [3] [µM] | further results
1 | c1cnc2c(c1)cc([C@@H]1CCCO1)n2CCN1CCCCC1 [compound 10] | inverse agonists | – | H3R affinity [2]: without H3R affinity
2 | c1ccc(Cc2ccccc2OC2CCNCC2)cc1 [compound 3] | – | – | inhibition of histamine-induced effects ([1]; tested against histamine (0.1 μM), InsP accumulation): completely inhibit
3 | CN(C)CCCN1c2ccccc2CCc2ccccc21 [Imipramine] | – | ≤ 10 | –
4 | Cc1ccc(/C(=C\CN2CCCC2)c2ccccn2)cc1 [Triprolidine] | – | ≤ 10 | –
5 | c1ccc2c(c1)n(CCN1CCCCC1)c1ncnn21 [compound 15] | inverse agonists | – | H3R affinity [2]: without H3R affinity
6 | NC1=NCC2c3ccccc3Cc3ccccc3N12 (stereo not drawn) [Epinastine] | – | ≤ 10 | –
7 | CN1CCN(c2nc(N3CCCC3)c3cnn(C)c3n2)CC1 [compound 4] | – | – | pKi H1R [4]: 7.21 ± 0.03
8 | CNCCCOc1cccc2ccccc12 [compound 9] | very weak partial agonist | – | intrinsic activity ([1]; InsP accumulation, HEK293T hH1R): 0.07
9 | c1ccc2c(c1)nc1n(CCN3CCCCC3)cnn21 [compound 13] | inverse agonists | – | –
